From patent US5001149A, “Azadirachtin derivative insecticides” (NPI, priority 1987, dated 1991)
In brackets after ≈: the same amount, converted by molar mass. Entries after “also recorded” stand apart in the source; their conditions may differ.

Columns and labels:
[1] = tested on: first-instar Heliothis virescens larvae; experiment: Mortality and growth inhibition in first-instar Heliothis virescens larvae fed in an artificial diet; assay type: in vivo
Description: Mortality and growth inhibition in first-instar Heliothis
virescens larvae fed azadirachtin and eight derivatives in an
^b LC50 values are the concentrations (ppm) causing 50%
^c EC50 values are the concentrations (PPM) causing 50% growth
^d Numbers in parentheses are the 95% confidence limits determined
using the methods of Litchfield and Wilcoxon, J. Pharmacol. Exp. Ther.

[2] = tested on: fifth-instar Heliothis virescens larvae; experiment: Pupal and adult development of fifth-instar larvae injected orally with non-irradiated compounds; assay type: in vivo
Method: (§1) Individual larvae were injected per os on the first day of the fifth instar with 1.0 μg of one of the either irradiated or non-irradiated compounds dissolved in 1.0 μl of 75% aqueous ethanol.
Successful and unsuccessful pupal and adult development of fifthinstar
Heliothis Virescens larvae injected orally with 1.0 microgram of either
azadirachtin, 3deacetylazadirachtin, 22,23dihydroazadirachtin, or
2',3',22,23tetrahydroazadirachtin.

[3] = tested on: fifth-instar Heliothis virescens larvae; experiment: Relative activity of UV-irradiated compounds in inhibiting pupal development (pupation); assay type: in vivo; conditions: for Relative activity, inhibiting pupal development: relative to non-irradiated
Method: (§2) Azadirachtin and its derivatives listed above (1.0 mg/ml absolute ethanol) were placed individually in capped quartz NMR tubes (5×180 mm) and were irradiated with two UV germicidal lights (GE, G30T8, 200-280 nm, 30 W) 1.8 m from the source at room temperature for up to 400 h. The controls were identical samples protected from exposure to UV radiation by wrapping with aluminum foil. At selected time intervals, aliquots from both the controls (non-irradiated) and irradiated samples were removed for high-performance liquid chromatography (HPLC) analysis (vide infra) and bioassay.
as §1
(§3) Relative activity of azadirachtin, 3deacetylazadirachtin,
22,23dihydroazadirachtin, and 2',3',22,23tetrahydroazadirachtin, all of
which had been exposed for 15, 30, 90, 200, and 400 hours to UV radiation
inhibiting the pupal development of fifthinstar Heliothis virescens
(§4) larvae. Relative activity is defined as the percentage of larvae injected

[4] = tested on: fifth-instar Heliothis virescens larvae; experiment: Relative activity of UV-irradiated compounds in inhibiting adult development; assay type: in vivo; conditions: for Relative activity, inhibiting adult development: relative to non-irradiated
Method: as §2, §1, §3
22,23dihydroazadirachtin, 2',3',22,23tetrahydroazadirachtin, all of which
had been exposed for 15, 30, 90, 200, and 400 hours to UV radiation, in
inhibiting the adult development of fifthinstar Heliothis virescens
as §4
relative to the percentage injected with its nonirradiated counterpart

[5] = Stability to UV irradiation by reversed phase HPLC; assay type: physicochemical
Method: Stability of Azadirachtin derivatives was determined as follows:
as §2
Analytical reversed phase HPLC was performed on a phenyl (5 μm) column run isocratically with acetonitrile-water (3:7) (Yamasaki et al.) Peaks were detected at 214 nm. The irradiated samples were compared with their corresponding non-UV-irradiated controls by measuring the height of the peak eluting at the appropriate Rt for each irradiated compound relative to each one's non-irradiated control. Results are expressed as the percent of the initial sample concentration remaining relative to the control. Each time point was done in at least triplicate fashion.

insects [6] = experiment: Antifeedant function; conditions: in vivo
insects [7] = conditions: Kubo & Klocke and other literature; cited from earlier work
[8] = 1.0 microgram per os, fifth instar, non-irradiated

C/C=C(\C)C(=O)O[C@H]1C[C@@H](OC(C)=O)[C@@]2(C(=O)OC)CO[C@H]3[C@@H](O)[C@@](C)([C@]45O[C@@]4(C)[C@H]4C[C@@H]5O[C@@H]5OC=C[C@@]54O)[C@H]4[C@]1(CO[C@]4(O)C(=O)OC)[C@@H]32 [Compound 1, azadirachtin]
LC50 ([1]; Heliothis virescens, po, read-out: LC50 (concentration causing 50% mortality)): 0.8 µg/mL (≈ 1.11 µM)
EC50 (concentration causing 50% growth inhibition) ([1]; first-instar larvae, artificial diet, in parentheses 95% confidence limits): 0.07 (0.05-0.10) ppm
Adults Deformed, % [2, 8]: 0.7%
Adults, % [2, 8]: 1.3%
Number Adults [2, 8]: 2
Number Adults Deformed [2, 8]: 1
Number Pupae [2, 8]: 10
Number Unsuccessful Larvae-Pupae [2, 8]: 5
Number Unsuccessful Pupae-Adult [2, 8]: 0
Pupae, % [2, 8]: 6.7%
Unsuccessful Larvae-Pupae, % [2, 8]: 3.4%
Unsuccessful Pupae-Adult, % [2, 8]: 0%
inhibition of pupation, in words ([2]; 1.0 microgram per os, non-irradiated): equally effective in inhibiting pupation
mortality at 0.001 mg ([2]; Heliothis virescens, light or radiation study, po, read-out: % Mortality Prior to Adult Stage): 98.7%
Relative activity, inhibiting pupal development ([3]; 15 h UV): 98.6%
Relative activity, inhibiting pupal development ([3]; 30 h UV): 98.9%
activity retained, in words ([3]; 90 h UV): retained full activity
Relative activity, inhibiting pupal development ([3]; 90 h UV): 85.7%
ability to inhibit pupation, in words ([3]; 200 h UV): did decline
Relative activity, inhibiting pupal development ([3]; 200 h UV): 74.2%
ability to inhibit pupation, in words ([3]; 400 h UV): An even greater decline
activity retained ([3]; 400 h UV): approximately 50%
Relative activity, inhibiting pupal development ([3]; 400 h UV): 60.0%
ability to inhibit pupation, in words ([3]; up to 90 h UV): not appreciably reduced
Relative activity, inhibiting adult development ([4]; 15 h UV): 101.3%
Relative activity, inhibiting adult development ([4]; 30 h UV): 101.3%
Relative activity, inhibiting adult development ([4]; 90 h UV): 97.3%
ability to inhibit larvae from reaching the adult stage, in words ([4]; 200 h UV): declined slightly
Relative activity, inhibiting adult development ([4]; 200 h UV): 89.7%
Relative activity, inhibiting adult development ([4]; 400 h UV): 81.1%
degradation, in words ([5]; 400 h UV): none of the three compounds remained in their original state
half-life ([5]; UV 200-280 nm, absolute ethanol, room temperature, read-out: T1/2 of UV degradation (converted)): 25 h
UV stability, in words ([5]; UV exposure up to 400 h): UV-labile
reaction order of UV degradation, in words ([5]; UV irradiation): degraded in a first-order reaction
degraded at 90 h ([5]; absolute ethanol, 90 h UV, read-out: compound degraded): > 80%
antifeedant function, in words (insects [6]): function as antifeedants
ecdysis inhibitory activity, in words (insects [7]): potent ecdysis inhibitory activity; also recorded: the same ecdysis inhibitory activity
